For series [1] the following is noted: cited from earlier work.
The conditions of series [2]: oligonucleotides delivered by gymnosis; cited from earlier work.
The subject of series [3] is HeLa EGFP-654 cells. Put plainly: SSO-654-mediated EGFP expression (splice switching) in HeLa EGFP-654 cells; flow cytometry, Western blot, microscopy. The format is cell-based, human. On the technique in general: Flow cytometry measures light scatter and fluorescence of single cells or particles in a stream.
Series [4] concerns PKR. Put plainly: PKR expression by real-time PCR (cellular stress response) in HeLa-GFP-654 cells. The format is cell-based, human. For orientation: Real-time PCR tracks product formation cycle by cycle.
Series [5] has as its system HDAC-2 mRNA. The format is cell-based, human.
The test system of series [6] is Malat-1. The format is cell-based, human.
Series [7] deals with BCL-2. The series is classed as cell-based, human.
In series [8] the test system is eGFP mRNA. The format is cell-based, human.
The subject of series [9] is HeLa-EGFP-654 and LNCaP cells. The series is classed as cell-based, human.
Series [10] relates to β-catenin. The series is classed as cell-based, human.
Series [11] concerns CDR1. The format is cell-based, human.
Series [12] deals with HeLa EGFP-654 cells.
The test system of series [13] is HeLa EGFP-654 cells. Put plainly: Cell growth and proliferation, SRB staining. To be noted: two days. (In SRB staining, fixed cells bind dye roughly in proportion to their protein.)
For series [14] the following is noted: cited from earlier work. The source holds these as a separate data set.
The test system of series [15] is AR mRNA. The series is described as follows: AR mRNA RT-PCR in LNCaP cells. The format is cell-based, human. As to conditions: 1 μM AR-ASO with 5 mM NH4^+, 24 hr, p<0.01. How it is done:
Values were normalized to GAPDH mRNA expression and expressed as the mean±SD, n=3. **p<0.01, Students t-test.
RNA was extracted from cells using RNA-STAT 60 (AMS Biotechnology, Abingdon, UK) as recommended by the manufacturer. First-strand cDNA was synthesized with the Super-Script® III First-Strand Synthesis System Kit (Invitrogen, Carlsbad, Calif.). PCR was performed with Power SYBR GREEN PCR Master Mix (Thermo Fisher Scientific, Waltham, Mass.).

Series [16] relates to androgen receptor (AR). Put plainly: ASO silencing of AR protein expression, Western blot. The series is classed as cell-based, human. As to conditions: LNCaP cells; for reduction in AR protein expression: three days. The procedure: Cells were harvested with trypsin digestion and washed once with PBS. Cell pellets were lysed in cold RIPA buffer containing protease inhibitors. Cellular RIPA lysates were sonicated for 2 seconds and then rested on ice for 5 min. Cell debris was removed by centrifugation at 12,000×g for 10 min at 4° C. Protein concentrations were determined using the Pierces BCA Protein Assay kit (Thermo Fisher Scientific, Waltham, Mass.). Aliquots of cell extracts containing 30-40 μg of protein were resolved by SDS-PAGE gel electrophoresis, and then transferred to PVDF membranes. After treatment with the appropriate primary and secondary antibodies, enhanced chemiluminescence was performed. Protein signals on the blot were quantified with the Image J program and protein expression was normalized to control=100%.
Protein expression was quantified with ImageJ.

Values joined by “and” are separate entries in the source; they are usually repeats but may differ in a detail not shown here. Identical values can stand only once. “Also recorded” adds a separate entry of the source. Like-named read-outs stand apart in the source and are kept apart here. l = locked nucleic acid (LNA); d = 2'-deoxy (DNA)

Consider `CCC(=O)N1CC(=O)Nc2ccc(Br)cc2C1c1ccccc1` (stereo not drawn) [Retro-1], for which the water solubility result in [1] is on record as “poorly water-soluble”. Also, the “optimal concentration for enhancing SSO and ASO efficacy” value in [2] is 50 to 100 µM.

Turning to `OO` [H2O2, hydrogen peroxide], in series [3], the “frequency of splice switching (correctly spliced eGFP expression)” value (shortened to “frequency of splice switching”) was “increased frequency of splice switching” and the “oligonucleotide (SSO) function, flow cytometry” value is “able to increase oligonucleotide function”. Further, in [4] (oligonucleotide (SSO) combined with the treatment), the “PKR activation / expression” value is “increasing PKR expression”.

On to `CCCCCCCC/C=C\CCCCCCCC(=O)O` [oleic acid], for which the “SSO-654 activity (EGFP MFI)” value in series [3] is listed as “significantly enhanced SSO-654 activity”.

Turning to arsenic trioxide [As III], the “expression of HDAC-2 mRNA” value in [5] is given as “did not significantly change”. Further, the Malat-1 gene expression result in [6] is on record as “silenced as a function of increasing As III concentrations”. For the same molecule, in series [3], the “frequency of splice switching” value is given as “increased frequency of splice switching” and the “upregulation of SSO-654-mediated EGFP expression” value is recorded as “three- to five-fold”. Moreover, the “BCL2-ASO activity (BCL-2 protein)” value in series [7] is “did not significantly increase”. The “cytoplasmic oligonucleotide function (eGFP mRNA silencing by ON-eGFP)” value in series [8] is “some loss of oligonucleotide function”. Further, the “oligonucleotide uptake (Cy5-ON by gymnosis)” value in series [9] is “No significant changes”. Further, the “β-Cat-ASO activity (β-catenin protein)” value in series [10] is listed as “did not significantly increase”. Also, the “PKR activation / expression” value in series [4] is listed as “PKR is activated”. The CDR-1 gene expression result in series [11] is listed as “silenced as a function of increasing As III concentrations”. Also, in series [12], the cell viability entry was “No significant changes”.

For `Cl.N` [NH4^+, Ammonium chloride], in series [3], the “activity of lipofected SSO-654 (EGFP MFI)” value is reported as “did not enhance the activity of the SSO-654”; the “increase of SSO-654-induced EGFP protein expression” value is on record as “more than two-fold”; the “increase of SSO-654 function and EGFP expression compared to SSO-654 alone” value was “a minimum of five fold”; the “increase of percentage of EGFP positive cells and EGFP protein expression compared to SSO-654 alone” value was “nearly seven-fold”. Also, in series [3], the “increase of percentage of EGFP-positive cells, NH4^+/SSO-654 vs SSO-654” value is “nearly four-fold”; the “oligonucleotide (SSO) function, flow cytometry” value was “able to increase oligonucleotide function”; the “upregulation of SSO-654-mediated EGFP expression” value is “three- to five-fold”. Moreover, in [13] (NH4^+ alone 1 mM-2 mM), the “effect on cell growth” value is on record as “did not affect the growth”. The “inhibition of cell growth” value in series [13] (NH4^+ alone 5 mM, normalized to non-treated controls) is given as “about 15%”. In series [9], the “cellular uptake of Cy5-ASO (Cy5 MFI)” value is on record as “did not significantly affect the cellular uptake”. Further, in [10], the “increase of β-Cat-ASO efficacy” value is listed as “approximately two fold”. For the same molecule, in [4], the “PKR activation / expression” value is reported as “does not seem to activate the stress gene response”.

On to “β-Cat-ASO: Phosphorothioate LNA gapmer ASO targeting β-catenin, 5′-CCAtcttgtgatcCAT-3′ (SEQ ID NO: 5) (antisense CCATCTTGTGATCCAT; sugars from the 5' end l3 d10 l3, all phosphorothioate, methylation of C not given here)”, for which the β-catenin gene expression result in series [10] is “nearly eliminated β-catenin gene expression”.

For the molecule “BCL2-ASO: Phosphorothioate LNA gapmer ASO targeting BCL-2, 5′-^mCTcccagcgtgcg^mC^mCa-3′ (SEQ ID NO: 3)”, in series [3], the “effect of BCL2-ASO on SSO-654 activity and EGFP expression” value is “diminished”; the “effect of BCL2-ASO on SSO-654 function” value is given as “did not affect SSO-654 function”. Further, in series [7], the “BCL2 silencing (BCL-2 protein expression)” value came to 65%; the BCL-2 protein expression entry was “nearly completely depleted BCL-2 protein expression; also recorded: Some silencing of the BCL-2 protein expression”; the “depletion of BCL-2 protein expression” value was 98% and 70%.

For the molecule `NC1CCCCC1` [cyclohexylamine], the “SSO-654 activity (EGFP MFI)” value in series [3] is “significantly enhanced SSO-654 activity”.

For `CC(=O)O.N` [ammonium acetate], the “effect on SSO-654-mediated EGFP expression compared with NH4^+” value in [3] is “comparable effects”.

A word on the pKa: it is the pH at which an ionisable group is half protonated. In the case of `Nc1c(Br)cc(Br)cc1CN[C@H]1CC[C@H](O)CC1` [Ambroxol], the “SSO-654 activity (EGFP MFI)” value in series [3] is “significantly enhanced SSO-654 activity”. In addition, the pKa in series [14] was 9.1.

Consider `O=C1Nc2cc(Br)ccc2/C1=C1/Nc2ccccc2/C1=N\O` [6BIO], for which the “frequency of splice switching” value in [3] is reported as “increased frequency of splice switching”.

On to “AR-ASO: Phosphorothioate LNA gapmer ASO targeting Androgen Receptor, 5′-ACCaagtttcttcAGC-3′ (SEQ ID NO: 6) (antisense ACCAAGTTTCTTCAGC; sugars from the 5' end l3 d10 l3, all phosphorothioate, methylation of C not given here)”, for which the “inhibition of NH4^+ and SSO-654-mediated EGFP expression by a second ASO” value in series [3] is on record as “only slight or no inhibition”. Further, the “reduction of AR mRNA expression compared with the AR-ASO alone” value in [15] is recorded as “about 40%”. In addition, the “AR reduction, dose response” value in [16] (0.25 μM AR-ASO with 5 mM NH4^+ vs 1 μM AR-ASO alone) is “greater AR reduction than 1 μM AR-ASO alone”. Also, the “reduction in AR protein expression” value was determined as 40% in series [16] (1 μM AR-ASO alone) and 80% in series [16] (1 μM AR-ASO with 5 mM NH4^+).
